One block for each molecule: values may come before it. The source made the active and inactive calls. The rule behind the calls is not given here.
Key:
DU-145 [1] = experiment: Antiproliferative activity against human DU-145 cells assessed as reduction in cell viability by MTT assay; format: functional, cell-based
PC-3 [2] = experiment: Antiproliferative activity against human PC-3 cells assessed as reduction in cell viability by MTT assay; format: functional, cell-based
PC-3 [3] = experiment: Inhibition of cancer stem cell activity in human PC-3 cells assessed as decrease in KLF4 protein expression at 20 uM incubated for 48 hrs by Western blot analysis; format: functional, cell-based
DU-145 [4] = experiment: Antimetastatic activity in human DU-145 cells assessed as inhibition of cell invasion at 20 uM incubated for 24 hrs by transwell invasion assay; format: functional, cell-based
DU-145 [5] = experiment: Inhibition of epithelial mesenchymal transition in human DU-145 cells assessed as downregulation of Slug protein expression at 20 uM incubated for 48 hrs by Western blot analysis; format: functional, cell-based
PC-3 [6] = experiment: Inhibition of epithelial mesenchymal transition in human PC-3 cells assessed as downregulation of Slug protein expression at 20 uM incubated for 48 hrs by Western blot analysis; format: functional, cell-based
DU-145 [7] = experiment: Inhibition of epithelial mesenchymal transition in human DU-145 cells assessed as downregulation of ZEBI protein expression at 20 uM incubated for 48 hrs by Western blot analysis; format: functional, cell-based
PC-3 [8] = experiment: Effect on FOXC2 gene expression level in human PC-3 cells; format: functional, cell-based
PC-3 [9] = experiment: Synergistic antiproliferative activity against human PC-3 cells assessed as combination index incubated for 24 hrs in the presence of enzalutamide by MTT assay; format: functional
PC-3 [10] = experiment: Inhibition of epithelial mesenchymal transition in human PC-3 cells assessed as upregulation of E-cadherin protein expression at 20 uM incubated for 48 hrs by Western blot analysis; format: functional, cell-based
DU-145 [11] = experiment: Inhibition of epithelial mesenchymal transition in human DU-145 cells assessed as upregulation of ZO-1 protein expression at 20 uM incubated for 48 hrs by Western blot analysis; format: functional, cell-based
PC-3 [12] = experiment: Inhibition of epithelial mesenchymal transition in human PC-3 cells assessed as downregulation of N-cadherin protein expression at 20 uM incubated for 48 hrs by Western blot analysis; format: functional, cell-based
LNCaP [13] = experiment: Synergistic antiproliferative activity against human LNCaP cells assessed as inhibition of cell growth in presence of docetaxel by MTT assay; format: functional, cell-based
PC-3 [14] = experiment: Antimetastatic activity in human PC-3 cells assessed as inhibition of cell invasion at 20 uM incubated for 24 hrs by transwell invasion assay; format: functional, cell-based
PC-3 [15] = experiment: Synergistic antiproliferative activity against human PC-3 cells assessed as reduction in cell viability incubated for 24 hrs in the presence of docetaxel by MTT assay; format: functional, cell-based
DU-145 [16] = experiment: Inhibition of cancer stem cell activity in human DU-145 cells assessed as decrease in C-myc protein expression at 20 uM incubated for 48 hrs by Western blot analysis; format: functional, cell-based
DU-145 [17] = experiment: Inhibition of epithelial mesenchymal transition in human DU-145 cells assessed as upregulation of E-cadherin protein expression at 20 uM incubated for 48 hrs by Western blot analysis; format: functional, cell-based
DU-145 [18] = experiment: Inhibition of epithelial mesenchymal transition in human DU-145 cells assessed as downregulation of N-cadherin protein expression at 20 uM incubated for 48 hrs by Western blot analysis; format: functional, cell-based
PC-3 [19] = experiment: Inhibition of epithelial mesenchymal transition in human PC-3 cells assessed as upregulation of ZO-1 protein expression at 20 uM incubated for 48 hrs by Western blot analysis; format: functional, cell-based
DU-145 [20] = experiment: Inhibition of cancer stem cell activity in human DU-145 cells assessed as decrease in KLF4 protein expression at 20 uM incubated for 48 hrs by Western blot analysis; format: functional, cell-based
DU-145 [21] = experiment: Inhibition of cancer stem cell activity in human DU-145 cells assessed as decrease in Nanog protein expression at 20 uM incubated for 48 hrs by Western blot analysis; format: functional, cell-based
DU-145 [22] = experiment: Effect on FOXC2 gene expression level in human DU-145 cells; format: functional, cell-based
[23] = target: T1, Forkhead box protein C2 (Homo sapiens) (UniProt Q99958); experiment: Induction of FOXC2 degradation in human PC-3 cells assessed as decrease in FOXC2 protein level at 20 uM incubated for 48 hrs by Western blot analysis; format: cell-based
T1 sequence (whole entry): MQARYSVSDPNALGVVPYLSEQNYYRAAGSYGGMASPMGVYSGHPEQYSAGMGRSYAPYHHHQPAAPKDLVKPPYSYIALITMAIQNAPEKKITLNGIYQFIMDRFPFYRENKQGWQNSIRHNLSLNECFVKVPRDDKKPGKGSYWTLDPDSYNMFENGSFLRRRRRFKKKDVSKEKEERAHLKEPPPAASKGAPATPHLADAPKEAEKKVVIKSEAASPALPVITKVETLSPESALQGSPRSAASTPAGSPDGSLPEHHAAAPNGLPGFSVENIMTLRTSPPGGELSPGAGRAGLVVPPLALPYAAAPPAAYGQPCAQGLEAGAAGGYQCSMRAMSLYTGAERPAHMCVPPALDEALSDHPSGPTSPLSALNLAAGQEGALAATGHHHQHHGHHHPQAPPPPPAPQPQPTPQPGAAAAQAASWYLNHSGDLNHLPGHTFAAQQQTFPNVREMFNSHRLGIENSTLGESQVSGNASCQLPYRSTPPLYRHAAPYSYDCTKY

DU-145 [24] = experiment: Inhibition of epithelial mesenchymal transition in human DU-145 cells assessed as downregulation of Vimentin protein expression at 20 uM incubated for 48 hrs by Western blot analysis; format: functional, cell-based
LNCaP [25] = experiment: Antimetastatic activity in human LNCaP cells assessed as inhibition of cell invasion by measuring change in number of invading cells by transwell invasion assay; format: functional, cell-based
PC-3 [26] = experiment: Inhibition of cancer stem cell activity in human PC-3 cells assessed as decrease in C-myc protein expression at 20 uM incubated for 48 hrs by Western blot analysis; format: functional, cell-based
PC-3 [27] = experiment: Inhibition of epithelial mesenchymal transition in human PC-3 cells assessed as downregulation of Vimentin protein expression at 20 uM incubated for 48 hrs by Western blot analysis; format: functional, cell-based
DU-145 [28] = experiment: Synergistic antiproliferative activity against human DU-145 cells assessed as combination index incubated for 24 hrs in the presence of enzalutamide by MTT assay; format: functional
[29] = target: T1, Forkhead box protein C2 (Homo sapiens); experiment: Induction of FOXC2 degradation in human DU-145 cells assessed as decrease in FOXC2 protein level at 20 uM incubated for 48 hrs by Western blot analysis; format: cell-based
DU-145 [30] = experiment: Synergistic antiproliferative activity against human DU-145 cells assessed as reduction in cell viability incubated for 24 hrs in the presence of docetaxel by MTT assay; format: functional, cell-based
PC-3 [31] = experiment: Inhibition of epithelial mesenchymal transition in human PC-3 cells assessed as downregulation of ZEBI protein expression at 20 uM incubated for 48 hrs by Western blot analysis; format: functional, cell-based
PC-3 [32] = experiment: Inhibition of cancer stem cell activity in human PC-3 cells assessed as decrease in Nanog protein expression at 20 uM incubated for 48 hrs by Western blot analysis; format: functional, cell-based

EC50 (DU-145 [1]): 0.00605 µM
EC50 (PC-3 [2]): 0.0076 µM
SMILES: CC(=O)O[C@@]12CO[C@@H]1C[C@H](O)[C@@]1(C)C(=O)[C@H](O)C3=C(C)[C@@H](OC(=O)[C@H](O)[C@@H](NC(=O)OC(C)(C)C)c4ccccc4)C[C@@](O)([C@@H](OC(=O)c4ccccc4)[C@H]21)C3(C)C [DOCETAXEL ANHYDROUS]

SMILES: CNC(=O)c1ccc(N2C(=S)N(c3ccc(C#N)c(C(F)(F)F)c3)C(=O)C2(C)C)cc1F
Activity (DU-145 [1]): inactive
Activity (PC-3 [2]): inactive

EC50 (DU-145 [1]): 48.1 µM
EC50 (PC-3 [2]): 53.2 µM
Activity [23]: Active
Activity [29]: Active
SMILES: N=C(N)NCCCCNc1nc(Nc2ccc(Oc3ccccc3)cc2)nc(N2CCN(c3nc(N)nc(Nc4ccc(N5CCOCC5)cc4)n3)CC2)n1
inhibition (PC-3 [3]): Active
Activity (DU-145 [4]): Active
inhibition (DU-145 [5]): Active
inhibition (PC-3 [6]): Active
inhibition (DU-145 [7]): Active
Activity (PC-3 [8]): inactive
CI (PC-3 [9]): >1
inhibition (PC-3 [10]): Active
inhibition (DU-145 [11]): Active
inhibition (PC-3 [12]): Active
Activity (LNCaP [13]): inactive
Activity (PC-3 [14]): Active
Activity (PC-3 [15]): Active
inhibition (DU-145 [16]): Active
inhibition (DU-145 [17]): Active
inhibition (DU-145 [18]): Active
inhibition (PC-3 [19]): Active
inhibition (DU-145 [20]): Active
inhibition (DU-145 [21]): Active
Activity (DU-145 [22]): inactive
inhibition (DU-145 [24]): Active
Activity (LNCaP [25]): inactive
inhibition (PC-3 [26]): Active
inhibition (PC-3 [27]): Active
CI (DU-145 [28]): >1
Activity (DU-145 [30]): Active
inhibition (PC-3 [31]): Active
inhibition (PC-3 [32]): Active
